≈ marks a conversion by molar mass, not a printed value. Bridge positions count the residues as written; N and C are the ends. Square brackets hold non-standard residues; d marks the D form. Peptide text beside a SMILES is read from it. * marks the point of attachment. Myristoyl = CCCCCCCCCCCCCC(=O)*; dOrn = NCCC[C@@H](N)C(=O)O; Orn = NCCC[C@H](N)C(=O)O; Dab = NCC[C@H](N)C(=O)O
Columns and labels:
Type in all cases: cell-based
[1] = test system: S. aureus USA300 Cls2A338stop; assay: MIC against telomycin-resistant mutant; settings: for antibacterial activity (MIC) S. aureus USA300 Cls2A338stop: Figure S127b, telomycin-resistant mutant
Description: (§1) All MIC assays were performed two independent times (n = 2) in 96‐well plates using a broth micro‐dilution method. The lowest concentration of that inhibited visible microbial growth was recorded as the MIC value.
(§2) For most of bacterial strains, overnight cultures were diluted 5000‐fold in LB broth. For E. faecium and S. aureus, overnight cultures were diluted 1000‐ and 10000‐fold in LB broth, respectively. 100 µL of diluted cells was mixed with 100 µL of LB broth containing each peptide ranging from 64 to 0.125 µg mL^−1 at 2‐fold serial dilutions.
(§3) Overnight cultures S. aureus USA300 were diluted 10000‐fold in LB broth, and 100 µL of dilute cell suspension was added to 96‐well plates containing 100 µL serially diluted aquicidine C4, telomycin, and daptomycin (with 15 mM CaCl2). Overnight cultures K. pneumoniae CRKP5452 were diluted 5000‐fold in LB broth, and 100 µL of dilute cell suspension was added to 96‐well plates containing 100 µL serially diluted aquicidine L and colistin. After an incubation of 24 h at 37 °C, the MIC value was determined. […] The MIC value was recorded as described above, and the process was repeated daily for 21 days. Experiments were performed two independent times (n = 2).
(§4) Single‐nucleotide polymorphisms (SNPs) for telomycin‐, daptomycin‐ or colistin‐resistant mutants were identified using SNIPPY by mapping DNBSEQ‐seq reads to the reference genome of S. aureus USA300 or K. pneumoniae CRKP5452.

[2] = test system: S. aureus USA300 MprFT345A; assay: MIC against daptomycin-resistant mutant; settings: for antibacterial activity (MIC) S. aureus USA300 MprFT345A: Figure S127b, daptomycin-resistant mutant
Description: as §1, §2, §3, §4

[3] = test system: Staphylococcus aureus USA300; assay: microbe, parasite or virus in culture; settings: for antibacterial activity (MIC) S. aureus USA300: Figure S127b, wild type
Description: as §1, §2

[4] = test system: Candida albicans ATCC 10231; assay: MIC assay (YPD broth); settings: Table S11; YPD broth, 30 °C, 16 h, n = 2
Description: as §1
(§5) For fungal strains, overnight cultures were diluted 2000‐fold in YPD broth. 100 µL of diluted cells was mixed with 100 µL of YPD broth containing each peptide ranging from […] 64 to 0.125 µg mL^−1 at 2‐fold serial dilutions.

Shigella Castellani LXX = assay: MIC assay (broth micro-dilution); settings: Table S11; LB broth, 37 °C, 16 h, n = 2
Description: as §1, §2

Escherichia coli DH5α = assay: MIC assay (broth micro-dilution); settings: Table S11; LB broth, 37 °C, 16 h, n = 2
Description: as §1, §2

[5] = test system: Candida albicans ATCC 64550; settings: ATCC 64550, 16 h
Description: as §1, §5

[6] = test system: Acinetobacter baumannii P53; assay: microbe, parasite or virus in culture; settings: Table S11; LB broth, 37 °C, 16 h, n = 2
Description: as §1, §2

[7] = test system: Salmonella enterica ATCC 14028; assay: microbe, parasite or virus in culture; settings: ATCC 14028, 16 h
Description: as §1, §2

[8] = test system: Vibrio alginolyticus XSBZ14; assay: microbe, parasite or virus in culture; settings: 16 h
Description: as §1, §2

[9] = test system: Klebsiella pneumoniae ATCC 13883; assay: microbe, parasite or virus in culture; settings: ATCC 13883, 16 h
Description: as §1, §2

[10] = test system: Acinetobacter baumannii ATCC 17978; assay: microbe, parasite or virus in culture; settings: ATCC 17978, 16 h
Description: as §1, §2

[11] = test system: Acinetobacter baumannii ATCC 19606; assay: microbe, parasite or virus in culture; settings: ATCC 19606, 16 h
Description: as §1, §2

Enterococcus faecalis 28 = assay: microbe, parasite or virus in culture; settings: 28, 16 h
Description: as §1, §2

[12] = test system: Pseudomonas aeruginosa PAO1; assay: microbe, parasite or virus in culture
Description: as §1, §2

[13] = test system: Klebsiella pneumoniae NCTC 5056; assay: microbe, parasite or virus in culture; settings: NCTC 5056, 16 h
Description: as §1, §2

[14] = test system: Enterococcus faecalis ATCC 29212; assay: microbe, parasite or virus in culture; settings: ATCC 29212, 16 h
Description: as §1, §2

[15] = test system: Enterococcus faecium 35682; assay: microbe, parasite or virus in culture
Description: as §1, §2

[16] = test system: Streptococcus pyogenes ATCC 19615; assay: microbe, parasite or virus in culture; settings: Table S11; LB broth, 37 °C, 16 h, n = 2
Description: as §1, §2

[17] = test system: Streptococcus mutans ATCC 25175; assay: microbe, parasite or virus in culture; settings: ATCC 25175, 16 h
Description: as §1, §2

[18] = test system: Pseudomonas aeruginosa ATCC 9027; assay: microbe, parasite or virus in culture; settings: ATCC 9027, 16 h
Description: as §1, §2

[19] = test system: Staphylococcus aureus Newman; assay: microbe, parasite or virus in culture; settings: Newman, 16 h
Description: as §1, §2

[20] = test system: Salmonella typhimurium LXX; assay: microbe, parasite or virus in culture; settings: murium LXX, 16 h
Description: as §1, §2

[21] = test system: Klebsiella pneumoniae CRKP 5452; assay: microbe, parasite or virus in culture; settings: Table S11; LB broth, 37 °C, 16 h, n = 2
Description: as §1, §2

[22] = test system: Klebsiella pneumoniae CRKP HS11286; assay: microbe, parasite or virus in culture; settings: CRKP HS11286, 16 h
Description: as §1, §2

Enterococcus faecalis 26 = assay: microbe, parasite or virus in culture; settings: 26, 16 h
Description: as §1, §2

[23] = test system: Acinetobacter baumannii 1104008; assay: microbe, parasite or virus in culture; settings: Table S11; LB broth, 37 °C, 16 h, n = 2
Description: as §1, §2

[24] = test system: Staphylococcus aureus ATCC 6538; assay: microbe, parasite or virus in culture; settings: ATCC 6538, 16 h
Description: as §1, §2

[25] = test system: Staphylococcus aureus ATCC 25923; assay: microbe, parasite or virus in culture; settings: ATCC 25923, 16 h
Description: as §1, §2

[26] = Table S11, LB broth, 37 °C, 16 h, n = 2

Molecule	antibacterial activity (MIC) S. aureus USA300 Cls2A338stop [1]	antibacterial activity (MIC) S. aureus USA300 MprFT345A [2]	antibacterial activity (MIC) S. aureus USA300 [3]	MIC Candida albicans ATCC 10231 [4]	MIC Shigella Castellani LXX (Shigella Castellani LXX)	MIC Escherichia coli DH5α (Escherichia coli DH5α)	MIC Candida albicans ATCC 64550 [5]	MIC Acinetobacter baumannii P53 [6]	MIC Salmonella enterica ATCC 14028 [7]	MIC Vibrio alginolyticus XSBZ14 [8]	MIC Klebsiella pneumoniae ATCC 13883 [9]	MIC Acinetobacter baumannii ATCC 17978 [10]	MIC Acinetobacter baumannii ATCC 19606 [11]	MIC Enterococcus faecalis 28 (Enterococcus faecalis 28)	MIC Klebsiella pneumoniae NCTC 5056 [13]	MIC Enterococcus faecalis ATCC 29212 [14]	MIC Streptococcus pyogenes ATCC 19615 [16]	MIC Streptococcus mutans ATCC 25175 [17]	MIC Pseudomonas aeruginosa ATCC 9027 [18]	MIC Staphylococcus aureus Newman [19]	further results
Daptomycin	1 µg/mL	16 µg/mL	1 µg/mL																		increase in MIC against resistant mutant compared to wild type ([2]; S. aureus USA300 MprF^T345A vs wild type): 16 fold
CCCCCCCCCCCCCC(=O)N[C@@H](CCCN)C(=O)N[C@H](Cc1ccc(O)cc1)C(=O)N[C@@H](C(=O)N[C@H]1C(=O)N[C@H](CCCN)C(=O)N[C@@H](CCCN)C(=O)N[C@H](C(C)C)C(=O)N[C@@H]([C@@H](C)CC)C(=O)N[C@@H](CC(C)C)C(=O)N[C@H](CCCN)C(=O)N[C@@H]([C@@H](C)O)C(=O)N[C@@H](C)C(=O)O[C@H]1C)C(C)C [synAQU6-C4] (Myristoyl-[Orn][dY][dV][dT][dOrn][Orn][dV]IL[dOrn]TA; ester 4-C)				> 64 µg/mL	> 64 µg/mL	8 µg/mL (≈ 5.24 µM)	> 64 µg/mL	> 64 µg/mL	32 µg/mL (≈ 20.9 µM)	> 64 µg/mL	32 µg/mL (≈ 20.9 µM)	32 µg/mL (≈ 20.9 µM)	> 64 µg/mL	> 64 µg/mL	32 µg/mL (≈ 20.9 µM)	> 64 µg/mL	4 µg/mL (≈ 2.62 µM)	4 µg/mL (≈ 2.62 µM)	> 64 µg/mL	> 64 µg/mL	MIC Pseudomonas aeruginosa PAO1 ([12]; PAO1, 16 h): 16 µg/mL (≈ 10.5 µM); MIC Enterococcus faecium 35682 ([15]; 35682, 16 h): 32 µg/mL (≈ 20.9 µM); MIC Staphylococcus aureus USA300 ([3]; USA300, 16 h): > 64 µg/mL; MIC Salmonella typhimurium LXX [20]: 32 µg/mL (≈ 20.9 µM); MIC Klebsiella pneumoniae CRKP 5452 [21]: 16 µg/mL (≈ 10.5 µM); MIC Klebsiella pneumoniae CRKP HS11286 [22]: 32 µg/mL (≈ 20.9 µM); MIC Enterococcus faecalis 26 (Enterococcus faecalis 26): 2 µg/mL (≈ 1.31 µM); MIC Acinetobacter baumannii 1104008 [23]: 32 µg/mL (≈ 20.9 µM); MIC Staphylococcus aureus ATCC 6538 [24]: 16 µg/mL (≈ 10.5 µM); MIC Staphylococcus aureus ATCC 25923 [25]: 16 µg/mL (≈ 10.5 µM)
Telomycin	128 µg/mL	4 µg/mL	4 µg/mL																		increase in MIC against resistant mutant compared to wild type ([1]; S. aureus USA300 Cls2^A338stop vs wild type): 32 fold
CCCCCCCCCCCCCC(=O)N[C@@H](Cc1ccccc1)C(=O)N[C@@H](CCCN)C(=O)N[C@H]1CCCNC(=O)CNC(=O)[C@H](CCN)NC(=O)[C@@H](Cc2ccc(O)cc2)NC(=O)[C@H](CC(C)C)NC(=O)[C@H]([C@@H](C)CC)NC(=O)[C@@H](C(C)C)NC1=O [synAQU2-C3] (Myristoyl-F[Orn][Orn][dV]IL[dY][Dab]G; lactam 3-C)				> 64 µg/mL	> 64 µg/mL	> 64 µg/mL	> 64 µg/mL	8 µg/mL (≈ 6.5 µM)	> 64 µg/mL	16 µg/mL (≈ 13 µM)	> 64 µg/mL	4 µg/mL (≈ 3.25 µM)	> 64 µg/mL	> 64 µg/mL	32 µg/mL (≈ 26 µM)	32 µg/mL (≈ 26 µM)	2 µg/mL (≈ 1.62 µM)	8 µg/mL (≈ 6.5 µM)	> 64 µg/mL	> 64 µg/mL	MIC Pseudomonas aeruginosa PAO1 [12, 26]: 32 µg/mL (≈ 26 µM); MIC Enterococcus faecium 35682 [15, 26]: 8 µg/mL (≈ 6.5 µM); MIC Staphylococcus aureus USA300 [3, 26]: > 64 µg/mL; MIC Salmonella typhimurium LXX [20]: > 64 µg/mL; MIC Klebsiella pneumoniae CRKP 5452 [21]: > 64 µg/mL; MIC Klebsiella pneumoniae CRKP HS11286 [22]: > 64 µg/mL; MIC Enterococcus faecalis 26 (Enterococcus faecalis 26): 8 µg/mL (≈ 6.5 µM); MIC Acinetobacter baumannii 1104008 [23]: 8 µg/mL (≈ 6.5 µM); MIC Staphylococcus aureus ATCC 6538 [24]: 16 µg/mL (≈ 13 µM); MIC Staphylococcus aureus ATCC 25923 [25]: 16 µg/mL (≈ 13 µM)

— PMC12677607, “Identification of a Pair of Linear or Cyclic Naturally Inspired Bifunctional Lipopeptide Antibiotics That Overcome Antimicrobial Resistance” (Advanced Science, 2025)
